Results on four compounds are retold here after PMC4521925, “17β-Hydroxysteroid Dehydrogenase Type 2 Inhibition: Discovery of Selective and Metabolically Stable Compounds Inhibiting Both the Human Enzyme and Its Murine Ortholog” (PLoS ONE, 2015).

In series [1] the target is T1, m17β-HSD2 (Mus musculus, UniProt P51658).
T1 construct: The microsomal fraction (m17β-HSD2) was obtained from mouse liver as described for h17β-HSD2; tissue Pharmacelsus GmbH (mouse livers); host or cells: mouse liver, microsomal fraction
T1 sequence (P51658 1-381): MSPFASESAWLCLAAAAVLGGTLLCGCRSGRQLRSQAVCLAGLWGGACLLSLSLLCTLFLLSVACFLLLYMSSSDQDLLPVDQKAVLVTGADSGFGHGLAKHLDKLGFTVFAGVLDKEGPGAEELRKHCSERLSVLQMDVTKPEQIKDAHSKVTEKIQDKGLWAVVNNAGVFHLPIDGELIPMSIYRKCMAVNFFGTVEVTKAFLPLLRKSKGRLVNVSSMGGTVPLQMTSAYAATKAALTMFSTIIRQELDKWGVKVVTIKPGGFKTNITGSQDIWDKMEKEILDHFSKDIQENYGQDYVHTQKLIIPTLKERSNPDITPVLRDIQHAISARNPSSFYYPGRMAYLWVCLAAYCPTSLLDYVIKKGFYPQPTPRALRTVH
The series is described as follows: Inhibition of m17β-HSD2 in cell-free assay. It counts as biochemical. In short, it runs like this:
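Mouse liver microsomal enzyme incubated with tritiated substrate, NAD+ [1500 μM] and inhibitor at 37 °C in 50 mM phosphate buffer with 20% glycerol, 1 mM EDTA, 1% DMSO final. Stopped after 20 min with HgCl2, steroids ether-extracted and quantified by HPLC radioflow detection; at least two independent experiments.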

For series [2], the target named is T2, h17β-HSD2 (Homo sapiens, UniProt P37059).
T2 sequence (P37059 1-387): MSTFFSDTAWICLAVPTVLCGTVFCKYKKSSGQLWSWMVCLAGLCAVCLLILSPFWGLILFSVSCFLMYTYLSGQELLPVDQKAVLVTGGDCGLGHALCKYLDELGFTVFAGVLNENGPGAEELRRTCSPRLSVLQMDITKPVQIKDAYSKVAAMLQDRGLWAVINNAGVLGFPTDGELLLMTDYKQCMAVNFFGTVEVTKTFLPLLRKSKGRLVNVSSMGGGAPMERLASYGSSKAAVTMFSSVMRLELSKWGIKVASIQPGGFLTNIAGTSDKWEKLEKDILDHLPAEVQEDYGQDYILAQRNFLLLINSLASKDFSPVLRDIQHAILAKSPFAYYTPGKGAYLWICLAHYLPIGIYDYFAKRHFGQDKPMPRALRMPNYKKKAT
Description: Inhibition of h17β-HSD2 in cell-free assay. It counts as biochemical. Also on record: from tissue; host or cells: human placenta, microsomal fraction. The note with it: for s.f. (selectivity factor) = IC50(17β-HSD1)/IC50(17β-HSD2): human enzymes, cell-free.

The nature of series [3]: Metabolic stability in a cell-free assay (liver S9 fraction). It counts as in vitro ADME. The note with it: human liver S9 fraction 1 mg/ml, NADPH regenerating system, UDPGA, PAPS, 37°C, inhibitor 1 μM; for half-life at 1 μM: pooled liver S9 fraction, read-out: Inhibitor t1/2. On the procedure: Compounds 7a, 8a, 16a, 19a, 22a, 27a and 27 were tested according to established method[33–35]For evaluation of phase I and II metabolic stability 1 μM compound was incubated with 1 mg/ml pooled mammalian liver S9 fraction (BD Gentest), 2 mM NADPH regenerating system, 1 mM UDPGA and 0.1 mM PAPS at 37°C for 0, 5, 15 and 60 minutes at a final volume of 100 μL. The incubation was stopped by precipitation of S9 enzymes with 2 volumes of cold acetonitrile containing internal standard. Concentration of the remaining test compound at the different time points was analyzed by LC-MS/MS and used to determine half-life (t1/2).

Series [4] deals with T3, m17β-HSD1 (Mus musculus, UniProt P51656).
T3 construct: host or cells: HEK 293 cells, transient transfection, 1000 g supernatant of the lysate
T3 sequence (P51656 1-344): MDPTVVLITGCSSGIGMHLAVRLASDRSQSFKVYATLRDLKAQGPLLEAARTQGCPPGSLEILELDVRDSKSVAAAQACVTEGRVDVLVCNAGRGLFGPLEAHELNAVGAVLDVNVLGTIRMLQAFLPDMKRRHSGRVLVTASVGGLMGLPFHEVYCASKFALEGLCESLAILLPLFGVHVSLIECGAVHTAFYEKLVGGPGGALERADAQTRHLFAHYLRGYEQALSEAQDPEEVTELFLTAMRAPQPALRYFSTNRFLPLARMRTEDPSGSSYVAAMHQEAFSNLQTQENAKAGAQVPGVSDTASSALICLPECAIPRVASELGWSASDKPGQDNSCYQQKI
The series is described as follows: Inhibition of m17β-HSD1 in cell-free assay. It counts as biochemical. Conditions: recombinant m17β-HSD1, substrate E1 [500 nM], NADPH [500 μM]. On the procedure:
h17β-HSD2, h17β-HSD1, m17β-HSD2 and m17β-HSD1 cell-free assays were performed similarly, by incubating enzyme, tritiated substrate, cofactor and inhibitor, according to described procedures.
Recombinant m17β-HSD1 enzyme was produced by transfection of HEK 293 cells with a m17β-HSD1 expression plasmid (coding sequence of NM_010475 in pCMV6Entry vector, OriGene Technologies, Inc.) according to a described procedure. 48 hours after transfection cells were homogenized by sonication (3 x 10 s) in a buffer containing saccharose (40 mMTris, 250 mM saccharose, 5 mM EDTA, 7 mM DTT, 1 mM PMSF, pH 7,5). Cell lysate was centrifuged (1000 g, 15 min, 4°C) and 20% glycerol was added to the supernatant before aliquots were frozen and stored at -70°C.
The 17β-HSD1 inhibition assay was performed similarly to the h17β-HSD2 test. The human cytosolic enzyme was incubated with NADH [500 μM] while the mouse recombinant enzyme was reacted with NADPH [500 μM].Test compound and a mixture of unlabelled- and [^3H]-E1 (final concentration: 500 nM, 0.15 μCi) were added and mixed for 10 min at 37°C. Further treatment of the samples and HPLC separation was carried out as mentioned above for h17β-HSD2.

With `COc1cccc(N(C)C(=O)c2ccc(-c3cccc(C)c3)cc2)c1` [Compound 6a, N-(3-methoxyphenyl)-N,3'-dimethyl-[1,1'-biphenyl]-4-carboxamide], the IC50 in series [1] was found to be 260 nM. For the same compound, in series [2], it took 260 nM to reach half-maximal inhibition (IC50) and the “s.f. (selectivity factor) = IC50(17β-HSD1)/IC50(17β-HSD2)” value is reported as 25. In addition, the half-life at 1 μM in series [3] was 1.77 h.

For `Cc1cccc(N(C)C(=O)c2ccc(-c3cccc(C)c3F)cc2)c1` [Compound 21a, 2'-Fluoro-N,3'-dimethyl-N-(m-tolyl)-[1,1'-biphenyl]-4-carboxamide], the “inhibition of m17β-HSD1 at 1 μM” value in series [4] is listed as “None of the tested compounds showed any inhibition”. Also, the inhibition at 1 µM in series [1] (read-out: % inh. at 1 μM m17β-HSD2) came to 56%. Moreover, in series [2], the concentration for half-maximal inhibition (IC50) was 330 nM and the “s.f. (selectivity factor) = IC50(17β-HSD1)/IC50(17β-HSD2)” value was found to be 11.

For the compound `COc1cccc(N(C)C(=O)c2ccc(-c3ccc(C)c(C)c3)cc2)c1` [Compound 17a, N-(3-methoxyphenyl)-N,3',4'-trimethyl-[1,1'-biphenyl]-4-carboxamide], in series [4], the “inhibition of m17β-HSD1 at 1 μM” value is “None of the tested compounds showed any inhibition”. Further, the results for the 50% inhibitory concentration (IC50) in series [1] and in series [2] were 140 nM and 300 nM, respectively. Further, in series [2], the “s.f. (selectivity factor) = IC50(17β-HSD1)/IC50(17β-HSD2)” value was 44. For the same compound, the half-life at 1 μM in series [3] amounted to 1.78 h.

For the compound `Cc1cccc(-c2ccc(C(=O)N(C)Cc3cccc(O)c3)cc2)c1F` [Compound 25, 2'-Fluoro-N-(3-hydroxybenzyl)-N,3'-dimethyl-[1,1'-biphenyl]-4-carboxamide], in series [4], the “inhibition of m17β-HSD1 at 1 μM” value was “None of the tested compounds showed any inhibition”. This compound also displayed an IC50 in series [1] of 190 nM. In series [2], half-maximal inhibition (IC50) required 260 nM and the “s.f. (selectivity factor) = IC50(17β-HSD1)/IC50(17β-HSD2)” value turned out to be 118. Besides, in series [3], the “Inhibitor t1/2” value is “short half-life” and the half-life at 1 μM stood at 0.1 h.
